Here are results for six molecules from paper PMC8294944 (Journal of agricultural and food chemistry, 2020).

Where two headings read alike, the source gives them in different places.

Test [1] addresses T1, ERα (Ishikawa endometrial carcinoma cells) (Homo sapiens, UniProt P03372).
T1 sequence (P03372 1-595): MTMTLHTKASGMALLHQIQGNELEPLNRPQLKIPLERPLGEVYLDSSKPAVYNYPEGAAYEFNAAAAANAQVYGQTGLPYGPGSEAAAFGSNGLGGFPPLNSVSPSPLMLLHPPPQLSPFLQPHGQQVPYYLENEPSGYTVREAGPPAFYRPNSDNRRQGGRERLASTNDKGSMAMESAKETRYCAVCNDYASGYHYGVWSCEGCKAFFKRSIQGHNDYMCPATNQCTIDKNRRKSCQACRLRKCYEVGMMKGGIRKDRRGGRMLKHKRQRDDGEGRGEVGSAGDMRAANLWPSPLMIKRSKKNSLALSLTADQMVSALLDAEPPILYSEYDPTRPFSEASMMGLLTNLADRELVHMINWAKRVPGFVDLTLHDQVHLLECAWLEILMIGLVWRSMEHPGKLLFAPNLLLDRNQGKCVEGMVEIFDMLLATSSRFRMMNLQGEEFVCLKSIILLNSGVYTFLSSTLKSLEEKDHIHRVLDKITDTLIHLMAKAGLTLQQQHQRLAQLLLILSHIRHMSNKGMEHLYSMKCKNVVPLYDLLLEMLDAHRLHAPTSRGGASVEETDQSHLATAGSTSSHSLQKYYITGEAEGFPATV
Put plainly: Estrogen-responsive alkaline phosphatase assay in ERα positive Ishikawa cells. The class given is cell-based. As to conditions: for Emax: Ishikawa, read-out: ERα Maximum efficacy.

The target in test [2] is T2, purified full length human recombinant ERα (Homo sapiens, UniProt P03372).
T2 sequence (P03372 1-595): T1 sequence (P03372 1-595)
Briefly: ERα competitive binding assay.

Test [3] has as its target purified full length human recombinant ERβ (Homo sapiens, UniProt Q92731). Briefly: ERβ competitive binding assay.
Another test relates to uterine tissue. Particulars: 8-PN in dietary concentrations; cited from earlier work.
The target of test [4] is T1, ERα (Ishikawa endometrial carcinoma cells). As to conditions: read-out: ERα EC50 (LigF); compared with 8-PA; cited from earlier work.
The mark [5] stands for this setting: relative to 17β-E2, [3H]-E2 tracer 20 nM.
Where [6] appears, read: alkaline phosphatase, Ishikawa cells, mean ± SEM.
Setting [7] is: read-out: ERα EC50 (compounds), alkaline phosphatase, Ishikawa cells, mean ± SEM.

Chain of purified full length human recombinant ERβ (Q92731 whole entry): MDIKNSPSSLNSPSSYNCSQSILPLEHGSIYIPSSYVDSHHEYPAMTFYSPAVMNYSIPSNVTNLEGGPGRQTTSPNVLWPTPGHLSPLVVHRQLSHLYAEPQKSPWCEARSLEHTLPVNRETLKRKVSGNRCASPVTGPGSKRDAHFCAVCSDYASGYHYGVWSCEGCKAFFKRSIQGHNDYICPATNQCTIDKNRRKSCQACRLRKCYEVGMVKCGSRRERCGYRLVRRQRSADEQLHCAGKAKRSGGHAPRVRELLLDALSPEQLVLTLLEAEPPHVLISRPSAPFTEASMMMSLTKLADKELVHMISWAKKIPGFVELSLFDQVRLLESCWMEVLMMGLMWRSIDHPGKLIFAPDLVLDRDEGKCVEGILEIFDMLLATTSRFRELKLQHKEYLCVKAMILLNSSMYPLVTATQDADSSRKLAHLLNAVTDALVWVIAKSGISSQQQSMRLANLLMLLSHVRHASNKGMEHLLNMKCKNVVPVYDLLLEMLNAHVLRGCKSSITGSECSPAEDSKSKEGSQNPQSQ

Take `CC(C)=CCc1c(O)cc(O)c2c(=O)c(-c3ccc(O)cc3)coc12` [8-PG, 8-Prenylgenistein]: in test [1], the midpoint of the response, the EC50, lay at 500 ± 200 nM and the Emax amounted to 49 ± 10%. Also, the “ERα % RBA (relative binding affinity = IC50 E2/IC50 (iso)flavonoid x100)” value in test [2] (setting [5]) is given as below 0.002%. Besides, in test [3] (setting [5]), the “ERβ % RBA (relative binding affinity = IC50 E2/IC50 (iso)flavonoid x100)” value amounted to 0.9%.

`CC(C)=CCc1c(O)cc(O)c2c1O[C@H](c1ccc(O)cc1)CC2=O` [8-PN, 8-Prenylnaringenin]: the “Effect on uterine weight” value in the test with uterine tissue is “increased uterine weight”.

With `CC(C)=CCc1c(O)cc(O)c2c(=O)c(O)c(-c3ccc(O)cc3)oc12` [DMI, Desmethylicaritin], the “ERα Maximum efficacy” value in test [1] (setting [6]) is 67 ± 12. Besides, the EC50 in test [1] (setting [7]) is 200 ± 20 nM.

With `O=C1C[C@@H](c2ccc(O)cc2)Oc2cc(O)ccc21` [LigF, liquiritigenin], in test [4], the half-maximal effective concentration (EC50) was 3400 nM.

With `O=C1C[C@@H](c2ccc(O)cc2)Oc2cc(O)cc(O)c21` [NRG, naringenin], in test [1], the EC50 was 3700 ± 500 nM and the Emax stood at 69 ± 6%. For the same molecule, the “ERα % RBA (relative binding affinity = IC50 E2/IC50 (iso)flavonoid x100)” value in test [2] is below 0.002%. Also, the “ERβ % RBA (relative binding affinity = IC50 E2/IC50 (iso)flavonoid x100)” value in test [3] turned out to be 0.05%.

In the case of Dehydrogenistein [DGN], in test [1] (setting [6]), the “ERα Maximum efficacy” value was 84 ± 4.0. The 50% effective concentration (EC50) in test [1] (setting [7]) is 800 ± 100 nM. In test [2] (setting [5]), the “ERα % RBA (relative binding affinity = IC50 E2/IC50 (iso)flavonoid x100)” value is below 0.002%. The “ERβ % RBA (relative binding affinity = IC50 E2/IC50 (iso)flavonoid x100)” value in test [3] (setting [5]) was 14%.
